Measurements: patent US20220220128A1, “HETEROCYCLIC COMPOUNDS AS KINASE INHIBITORS, COMPOSITIONS COMPRISING THE HETEROCYCLIC COMPOUND, AND METHODS OF USE THEREOF” (JS Innopharm (Shanghai) Ltd, priority 2019, published 2022)

How the values were obtained:
TT cells = experiment: TT Cell Proliferation Assay (WST-8, 8 days); assay type: cell-based; conditions: Homo sapiens, TT, 192 h, growth inhibition in TT cells, read-out: TT Cellular Activity
Outline: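 TT cells, 6,000/well in RPMI-1640 with 10% FBS, attached 24 h, then exposed to compound at 5 μM down to 0.0005 μM final (0.5% DMSO) for 8 days at 37 °C. WST-8 added for 5 h, absorbance at 450 nm. IC50 calculated from the dilution series.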

human KDR kinase = target: T1, human KDR kinase (Homo sapiens, UniProt P35968); experiment: KDR Kinase Assay (LanthaScreen TR-FRET enzymatic assay); assay type: biochemical; conditions: 1.2 nM KDR, 92 μM ATP
T1 construct: purchased Carna 08-191
T1 sequence (P35968 20-1356): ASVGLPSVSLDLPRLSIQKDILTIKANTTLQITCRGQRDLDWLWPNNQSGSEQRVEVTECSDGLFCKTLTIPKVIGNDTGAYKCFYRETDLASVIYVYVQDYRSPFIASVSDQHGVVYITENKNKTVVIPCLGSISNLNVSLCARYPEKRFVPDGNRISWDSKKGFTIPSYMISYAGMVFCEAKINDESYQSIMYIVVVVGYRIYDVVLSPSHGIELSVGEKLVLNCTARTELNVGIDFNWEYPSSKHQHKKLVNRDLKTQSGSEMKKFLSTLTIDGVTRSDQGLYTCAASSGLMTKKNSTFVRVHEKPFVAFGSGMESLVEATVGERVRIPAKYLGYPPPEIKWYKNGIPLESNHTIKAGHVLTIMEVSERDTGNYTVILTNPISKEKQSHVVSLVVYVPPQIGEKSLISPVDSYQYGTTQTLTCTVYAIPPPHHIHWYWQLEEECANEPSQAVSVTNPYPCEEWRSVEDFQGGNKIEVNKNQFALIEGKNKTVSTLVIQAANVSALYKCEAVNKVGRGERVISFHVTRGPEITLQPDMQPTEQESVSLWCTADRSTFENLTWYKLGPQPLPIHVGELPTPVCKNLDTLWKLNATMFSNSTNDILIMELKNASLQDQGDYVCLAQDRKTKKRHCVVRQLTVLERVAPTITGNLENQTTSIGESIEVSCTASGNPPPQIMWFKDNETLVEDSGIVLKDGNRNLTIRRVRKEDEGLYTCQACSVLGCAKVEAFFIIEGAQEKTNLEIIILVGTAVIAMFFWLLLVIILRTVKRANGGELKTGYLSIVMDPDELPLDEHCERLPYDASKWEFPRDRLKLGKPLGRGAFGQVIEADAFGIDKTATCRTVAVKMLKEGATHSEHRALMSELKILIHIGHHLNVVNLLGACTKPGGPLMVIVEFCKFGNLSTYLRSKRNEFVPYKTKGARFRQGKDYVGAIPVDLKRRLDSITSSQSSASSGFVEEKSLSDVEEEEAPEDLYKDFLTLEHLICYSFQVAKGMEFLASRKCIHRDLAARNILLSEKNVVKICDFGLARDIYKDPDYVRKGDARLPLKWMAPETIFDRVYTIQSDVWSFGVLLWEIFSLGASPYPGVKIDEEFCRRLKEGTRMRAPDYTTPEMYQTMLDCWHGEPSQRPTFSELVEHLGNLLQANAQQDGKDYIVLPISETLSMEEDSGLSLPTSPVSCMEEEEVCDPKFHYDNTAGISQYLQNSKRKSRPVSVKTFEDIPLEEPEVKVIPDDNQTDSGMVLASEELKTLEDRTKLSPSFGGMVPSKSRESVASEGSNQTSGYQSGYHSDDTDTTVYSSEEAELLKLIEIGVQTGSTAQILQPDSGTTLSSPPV
Outline: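 Recombinant human KDR (1.2 nM) preincubated 15 min at room temperature with compound, then reacted with 3 μM FAM-P22 peptide and 92 μM ATP in 50 mM HEPES pH 7.5 for 1 h at 28° C. EDTA stop, then TR-FRET acceptor/donor ratio read; percent of 1% DMSO control fitted sigmoidally for IC50.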

human RET kinase = target: T2, human RET kinase (Homo sapiens, UniProt P07949); experiment: RET Kinase Assay (LanthaScreen TR-FRET enzymatic assay); assay type: biochemical; conditions: 7 nM RET, 23 μM ATP
T2 construct: purchased Carna 08-159
T2 sequence (P07949 29-1114): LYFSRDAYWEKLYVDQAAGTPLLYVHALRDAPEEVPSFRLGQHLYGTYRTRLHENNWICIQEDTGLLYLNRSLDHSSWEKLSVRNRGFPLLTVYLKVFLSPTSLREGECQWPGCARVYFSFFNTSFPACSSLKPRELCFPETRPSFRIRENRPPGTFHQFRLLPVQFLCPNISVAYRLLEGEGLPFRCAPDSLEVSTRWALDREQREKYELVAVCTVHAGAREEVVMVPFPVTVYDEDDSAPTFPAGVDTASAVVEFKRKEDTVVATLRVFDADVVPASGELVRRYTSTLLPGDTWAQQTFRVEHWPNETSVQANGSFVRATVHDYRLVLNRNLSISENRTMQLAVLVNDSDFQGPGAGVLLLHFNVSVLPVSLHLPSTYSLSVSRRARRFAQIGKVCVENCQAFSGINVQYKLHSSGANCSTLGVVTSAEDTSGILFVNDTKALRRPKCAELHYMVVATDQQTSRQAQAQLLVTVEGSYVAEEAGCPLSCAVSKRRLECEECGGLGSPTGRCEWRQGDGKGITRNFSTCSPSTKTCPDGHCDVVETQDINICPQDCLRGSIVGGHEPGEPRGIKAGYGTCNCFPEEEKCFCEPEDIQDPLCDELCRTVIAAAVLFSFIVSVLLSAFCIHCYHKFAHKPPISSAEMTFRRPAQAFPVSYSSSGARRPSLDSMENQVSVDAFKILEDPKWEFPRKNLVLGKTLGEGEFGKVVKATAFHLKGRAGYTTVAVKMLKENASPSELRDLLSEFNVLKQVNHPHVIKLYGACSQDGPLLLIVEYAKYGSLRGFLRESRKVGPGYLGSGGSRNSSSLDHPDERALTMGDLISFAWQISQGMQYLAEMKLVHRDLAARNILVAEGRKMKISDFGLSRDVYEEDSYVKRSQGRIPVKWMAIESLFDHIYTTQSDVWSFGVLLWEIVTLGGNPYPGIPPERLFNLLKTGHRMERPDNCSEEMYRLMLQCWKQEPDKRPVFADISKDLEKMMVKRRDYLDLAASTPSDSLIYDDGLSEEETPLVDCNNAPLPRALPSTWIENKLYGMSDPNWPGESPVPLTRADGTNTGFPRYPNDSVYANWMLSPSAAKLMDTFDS
Outline: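 Human RET (7 nM) preincubated 15 min with compound in 50 mM HEPES pH 7.5, 0.0015% Brij-35, then reacted with 3 μM FAM-P2 peptide and 23 μM ATP for 1 h at 28° C.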

Row | SMILES | IC50 (TT cells) | IC50 (human KDR kinase) | IC50 (human RET kinase)
1 | Cn1cc(-c2cc(-c3cnc(N4C[C@@H]5CN(S(=O)(=O)c6c(F)cccc6Cl)C[C@@H]5C4)cn3)c3c(C#N)cnn3c2)cn1 [Example 182, 4-(5-((3aR,6aS)-5-((2-chloro-6-fluorophenyl)sulfonyl)hexahdropyrrolo[3,4-c]pyrrol-2(1H)-yl)pyrazin-2-yl)-6-(1-methyl-1H-pyrazol-4-yl)pyrazolo[1,5-a]pyridine-3-carbonitrile] | ≤ 10 nM | 10 to 50 nM | ≤ 10 nM
2 | CC(C)[C@@H](O)C(=O)N[C@H]1[C@@H]2CN(c3ccc(-c4cc(-c5cnn(C)c5)cn5ncc(C#N)c45)cn3)C[C@@H]21 [Example 19, (R)-N-((1R,5S,6s)-3-(5-(3-cyano-6-(1-methyl-1H-pyrazol-4-yl)pyrazolo[1,5-a]pyridin-4-yl)pyridin-2-yl)-3-azabicyclo[3.1.0]hexan-6-yl)-2-hydroxy-3-methylbutanamide] | 10 to 50 nM | 10 to 50 nM | ≤ 10 nM
3 | CC(C)C(=O)N[C@H]1[C@@H]2CN(c3ccc(-c4cc(-c5cnn(C)c5)cn5ncc(C#N)c45)cn3)C[C@@H]21 [Example 31, N-((1R,5 S,6s)-3-(5-(3-cyano-6-(1-methyl-1H-pyrazol-4-yl)pyrazolo[1,5-a]pyridin-4-yl)pyridin-2-yl)-3-azabicyclo[3.1.0]hexan-6-yl)isobutyramide] | 50 to 100 nM | 10 to 50 nM | ≤ 10 nM
4 | Cn1ccc(-c2cc(-c3ccc(N4C[C@@H]5C[C@@](C)(NC(=O)c6ncccc6C#N)C[C@@H]5C4)nc3)c3c(C#N)cnn3c2)n1 [Example 198, 3-cyano-N-((3aR,5s,6aS)-2-(5-(3-cyano-6-(1-methyl-1H-pyrazol-3-yl)pyrazolo[1,5-a]pyridin-4-yl)pyridin-2-yl)-5-methyloctahydrocyclopenta[c]pyrrol-5-yl)picolinamide] | 10 to 50 nM | 50 to 100 nM | 10 to 50 nM
5 | Cc1ccc(F)cc1C(=O)N[C@H]1[C@@H]2CN(c3ccc(-c4cc(-c5cnn(C)c5)cn5ncc(C#N)c45)cn3)C[C@@H]21 [Example 26, N-((1R,5S,6s)-3-(5-(3-cyano-6-(1-methyl-1H-pyrazol-4-yl)pyrazolo[1,5-a]pyridin-4-yl)pyridin-2-yl)-3-azabicyclo[3.1.0]hexan-6-yl)-5-fluoro-2-methylbenzamide] | 10 to 50 nM | ≤ 10 nM | ≤ 10 nM
6 | Cn1cc(-c2cc(-c3ccc(N4C[C@@H]5[C@H](C4)[C@H]5NC(=O)c4ncccc4C(F)(F)F)nc3)c3c(C#N)cnn3c2)cn1 [Example 21, N-((1R,5S,6s)-3-(5-(3-cyano-6-(1-methyl-1H-pyrazol-4-yl)pyrazolo[1,5-a]pyridin-4-yl)pyridin-2-yl)-3-azabicyclo[3.1.0]hexan-6-yl)-3-(trifluoromethyl)picolinamide] | 10 to 50 nM | ≤ 10 nM | ≤ 10 nM
7 | CC(C)(O)COc1cc(-c2ccc(N3C[C@@H]4[C@H](C3)[C@H]4NC(=O)[C@H](O)c3ccccc3)nc2)c2c(C#N)cnn2c1 [Example 40, (R)-N-((1R,5S,6s)-3-(5-(3-cyano-6-(2-hydroxy-2-methylpropoxy)pyrazolo[1,5-a]pyridin-4-yl)pyridin-2-yl)-3-azabicyclo[3.1.0]hexan-6-yl)-2-hydroxy-2-phenylacetamide] | 50 to 100 nM | > 100 nM | 10 to 50 nM
8 | Cn1cc(-c2cc(-c3ccc(N4C[C@@H]5[C@H](CNC(=O)OC(C)(C)C)[C@@H]5C4)nc3)c3c(C#N)cnn3c2)cn1 [Example 72, tert-butyl (((1R,5S,6r)-3-(5-(3-cyano-6-(1-methyl-1H-pyrazol-4-yl)pyrazolo[1,5-a]pyridin-4-yl)pyridin-2-yl)-3-azabicyclo[3.1.0]hexan-6-yl)methyl)carbamate] | ≤ 10 nM | ≤ 10 nM | ≤ 10 nM
9 | CCOc1cc(-c2cnc(N3C[C@@H]4[C@H](C3)[C@H]4NC(=O)c3ncccc3Cl)cn2)c2c(C#N)cnn2c1 [Example 42, 3-chloro-N-((1R,5S,6s)-3-(5-(3-cyano-6-ethoxypyrazolo[1,5-a]pyridin-4-yl)pyrazin-2-yl)-3-azabicyclo[3.1.0]hexan-6-yl)picolinamide] | > 100 nM | > 100 nM | 50 to 100 nM
10 | CCOc1cc(-c2ccc(N3C[C@@H]4C[C@@](C)(NC(=O)c5c(F)cccc5Cl)C[C@@H]4C3)nc2)c2c(C#N)cnn2c1 [Example 66, 2-chloro-N-((3aR,5s,6aS)-2-(5-(3-cyano-6-ethoxypyrazolo[1,5-a]pyridin-4-yl)pyridin-2-yl)-5-methyloctaliydrocyclopenta[c]pyrrol-5-yl)-6-fluorobenzamide] | 10 to 50 nM | 50 to 100 nM | ≤ 10 nM
11 | COc1ccc(CN(C)[C@H]2[C@@H]3CN(c4ccc(-c5cc(-c6cnn(C)c6)cn6ncc(C#N)c56)cn4)C[C@@H]32)cn1 [Example 34, 4-(6-((1R,5S,6s)-6-(((6-methoxypyridin-3-yl)methyl)(methyl)amino)-3-azabicyclo[3.1.0]hexan-3-yl)pyridin-3-yl)-6-(1-methyl-1H-pyrazol-4-yl)pyrazolo[1,5-a]pyridine-3-carbonitrile] | 10 to 50 nM | 10 to 50 nM | ≤ 10 nM
12 | CC(C)CC(=O)NC[C@@H]1[C@H]2CN(c3ccc(-c4cc(-c5cnn(C)c5)cn5ncc(C#N)c45)cn3)C[C@@H]12 [Example 88, N-(((1R,5S,6s)-3-(5-(3-cyano-6-(1-methyl-1H-pyrazol-4-yl)pyrazolo[1,5-a]pyridin-4-yl)pyridin-2-yl)-3-azabicyclo[3.1.0]hexan-6-yl)methyl)-3-methylbutanamide] | ≤ 10 nM | 10 to 50 nM | ≤ 10 nM
13 | CC(C)C(=O)N1C[C@@H]2CN(c3ccc(-c4cc(-c5cnn(C)c5)cn5ncc(C#N)c45)cn3)C[C@@H]2C1 [Example 10, 4-(6-((3aR,6aS)-5-isobutyrylhexahydropyrrolo[3,4-c]pyrrol-2(1H)-yl)pyridin-3-yl)-6-(1-methyl-1H-pyrazol-4-yl)pyrazolo[1,5-a]pyridine-3-carbonitrile] | 10 to 50 nM | 10 to 50 nM | ≤ 10 nM
14 | Cn1cc(-c2cc(-c3ccc(N4C[C@@H]5[C@@H](CNS(=O)(=O)c6c(F)cccc6Cl)[C@@H]5C4)nc3)c3c(C#N)cnn3c2)cn1 [Example 74, 2-chloro-N-(((1R,5S,6r)-3-(5-(3-cyano-6-(1-methyl-H-pyrazol-4-yl)pyrazolo[1,5-a]pyridin-4-yl)pyridin-2-yl)-3-azabicyclo[3.1.0]hexan-6-yl)methyl)-6-fluorobenzenesulfonamide] | 10 to 50 nM | 10 to 50 nM | ≤ 10 nM
15 | Cn1cc(-c2cc(-c3ccc(N4C[C@@H]5[C@@H](CNC(=O)C(C)(C)C)[C@@H]5C4)nc3)c3c(C#N)cnn3c2)cn1 [Example 87, N-(((1R,5S,6s)-3-(5-(3-cyano-6-(1-methyl-1H-pyrazol-4-yl)pyrazolo[1,5-a]pyridin-4-yl)pyridin-2-yl)-3-azabicyclo[3.1.0]hexan-6-yl)methyl)pivalamid] | ≤ 10 nM | 10 to 50 nM | ≤ 10 nM
